≈ marks a conversion by molar mass, not a printed value.
Columns and labels:
Streptococcus mutans [1] = assay: Antibacterial activity against Streptococcus mutans ATCC 25175 assessed as effect on planktonic growth at 0.34 ug/ml after 20 hrs relative to control; type: functional
Staphylococcus aureus [2] = assay: Antibacterial activity against Staphylococcus aureus ATCC 25923 assessed as effect on planktonic growth at 43.8 ug/ml after 20 hrs relative to control; type: functional
Streptococcus mutans [3] = assay: Antibacterial activity against Streptococcus mutans ATCC 25175 assessed as effect on planktonic growth at 87.5 ug/ml after 20 hrs relative to control; type: functional
[4] = test system: Staphylococcus epidermidis; assay: Antibacterial activity against Staphylococcus epidermidis ATCC 35547 assessed as effect on planktonic growth at 0.68 ug/ml after 20 hrs relative to control; type: functional
[5] = test system: Staphylococcus epidermidis; assay: Antibacterial activity against Staphylococcus epidermidis ATCC 35547 assessed as effect on planktonic growth at 0.34 ug/ml after 20 hrs relative to control; type: functional
Streptococcus mutans [6] = assay: Antibacterial activity against Streptococcus mutans ATCC 25175 assessed as effect on planktonic growth at 21.9 ug/ml after 20 hrs relative to control; type: functional
Staphylococcus aureus [7] = assay: Antibacterial activity against Staphylococcus aureus ATCC 25923 assessed as effect on planktonic growth at 0.17 ug/ml after 20 hrs relative to control; type: functional
Streptococcus mutans [8] = assay: Antibacterial activity against Streptococcus mutans ATCC 25175 assessed as effect on planktonic growth at 2.73 ug/ml after 20 hrs relative to control; type: functional
Pseudomonas aeruginosa [9] = assay: Antibacterial activity against Pseudomonas aeruginosa ATCC 27853 assessed as inhibition of biofilm formation after 20 hrs by crystal-violet staining method; type: functional, organism-based; details: for IC50: ATCC 27853, 20 h
[10] = test system: Staphylococcus epidermidis; assay: Antibacterial activity against Staphylococcus epidermidis ATCC 35547 assessed as effect on planktonic growth at 21.9 ug/ml after 20 hrs relative to control; type: functional
Streptococcus mutans [11] = assay: Antibacterial activity against Streptococcus mutans ATCC 25175 assessed as effect on planktonic growth at 10.9 ug/ml after 20 hrs relative to control; type: functional
Staphylococcus aureus [12] = assay: Antibacterial activity against Staphylococcus aureus ATCC 25923 assessed as effect on planktonic growth at 10.9 ug/ml after 20 hrs relative to control; type: functional
Staphylococcus aureus [13] = assay: Antibacterial activity against Staphylococcus aureus ATCC 25923 assessed as effect on planktonic growth at 1.37 ug/ml after 20 hrs relative to control; type: functional
[14] = test system: Staphylococcus epidermidis; assay: Antibacterial activity against Staphylococcus epidermidis ATCC 35547 assessed as inhibition of biofilm formation after 20 hrs by crystal-violet staining method; type: functional, organism-based; details: for IC50: ATCC 35547, 20 h
Staphylococcus aureus [15] = assay: Antibacterial activity against Staphylococcus aureus ATCC 25923 assessed as effect on planktonic growth at 87.5 ug/ml after 20 hrs relative to control; type: functional
Pseudomonas aeruginosa [16] = assay: Antibacterial activity against Pseudomonas aeruginosa ATCC 27853 assessed as effect on planktonic growth at 2.73 ug/ml after 20 hrs relative to control; type: functional
Staphylococcus aureus [17] = assay: Antibacterial activity against Staphylococcus aureus ATCC 25923 assessed as effect on planktonic growth at 5.5 ug/ml after 20 hrs relative to control; type: functional
Staphylococcus aureus [18] = assay: Antibacterial activity against Staphylococcus aureus ATCC 25923 assessed as effect on planktonic growth at 2.73 ug/ml after 20 hrs relative to control; type: functional
Pseudomonas aeruginosa [19] = assay: Antibacterial activity against Pseudomonas aeruginosa ATCC 27853 assessed as effect on planktonic growth at 21.9 ug/ml after 20 hrs relative to control; type: functional
[20] = test system: Staphylococcus epidermidis; assay: Antibacterial activity against Staphylococcus epidermidis ATCC 35547 assessed as effect on planktonic growth at 10.9 ug/ml after 20 hrs relative to control; type: functional
[21] = test system: Staphylococcus epidermidis; assay: Antibacterial activity against Staphylococcus epidermidis ATCC 35547 assessed as effect on planktonic growth at 0.17 ug/ml after 20 hrs relative to control; type: functional
[22] = test system: Staphylococcus epidermidis; assay: Antibacterial activity against Staphylococcus epidermidis ATCC 35547 assessed as effect on planktonic growth at 87.5 ug/ml after 20 hrs relative to control; type: functional
Streptococcus mutans [23] = assay: Antibacterial activity against Streptococcus mutans ATCC 25175 assessed as effect on planktonic growth at 5.5 ug/ml after 20 hrs relative to control; type: functional
Streptococcus mutans [24] = assay: Antibacterial activity against Streptococcus mutans ATCC 25175 assessed as effect on planktonic growth at 0.17 ug/ml after 20 hrs relative to control; type: functional
[25] = test system: Staphylococcus epidermidis; assay: Antibacterial activity against Staphylococcus epidermidis ATCC 35547 assessed as effect on planktonic growth at 43.8 ug/ml after 20 hrs relative to control; type: functional
Streptococcus mutans [26] = assay: Antibacterial activity against Streptococcus mutans ATCC 25175 assessed as effect on planktonic growth at 0.68 ug/ml after 20 hrs relative to control; type: functional
Pseudomonas aeruginosa [27] = assay: Antibacterial activity against Pseudomonas aeruginosa ATCC 27853 assessed as effect on planktonic growth at 5.5 ug/ml after 20 hrs relative to control; type: functional
Pseudomonas aeruginosa [28] = assay: Antibacterial activity against Pseudomonas aeruginosa ATCC 27853 assessed as effect on planktonic growth at 0.68 ug/ml after 20 hrs relative to control; type: functional
Staphylococcus aureus [29] = assay: Antibacterial activity against Staphylococcus aureus ATCC 25923 assessed as effect on planktonic growth at 21.9 ug/ml after 20 hrs relative to control; type: functional
Pseudomonas aeruginosa [30] = assay: Antibacterial activity against Pseudomonas aeruginosa ATCC 27853 assessed as effect on planktonic growth at 1.37 ug/ml after 20 hrs relative to control; type: functional
Pseudomonas aeruginosa [31] = assay: Antibacterial activity against Pseudomonas aeruginosa ATCC 27853 assessed as effect on planktonic growth at 87.5 ug/ml after 20 hrs relative to control; type: functional
Staphylococcus aureus [32] = assay: Antibacterial activity against Staphylococcus aureus ATCC 25923 assessed as effect on planktonic growth at 0.34 ug/ml after 20 hrs relative to control; type: functional
Pseudomonas aeruginosa [33] = assay: Antibacterial activity against Pseudomonas aeruginosa ATCC 27853 assessed as effect on planktonic growth at 43.8 ug/ml after 20 hrs relative to control; type: functional
Pseudomonas aeruginosa [34] = assay: Antibacterial activity against Pseudomonas aeruginosa ATCC 27853 assessed as effect on planktonic growth at 0.17 ug/ml after 20 hrs relative to control; type: functional
[35] = test system: Staphylococcus epidermidis; assay: Antibacterial activity against Staphylococcus epidermidis ATCC 35547 assessed as effect on planktonic growth at 5.5 ug/ml after 20 hrs relative to control; type: functional
[36] = test system: Staphylococcus epidermidis; assay: Antibacterial activity against Staphylococcus epidermidis ATCC 35547 assessed as effect on planktonic growth at 1.37 ug/ml after 20 hrs relative to control; type: functional
Pseudomonas aeruginosa [37] = assay: Antibacterial activity against Pseudomonas aeruginosa ATCC 27853 assessed as effect on planktonic growth at 0.34 ug/ml after 20 hrs relative to control; type: functional
Streptococcus mutans [38] = assay: Antibacterial activity against Streptococcus mutans ATCC 25175 assessed as effect on planktonic growth at 43.8 ug/ml after 20 hrs relative to control; type: functional
[39] = test system: Staphylococcus epidermidis; assay: Antibacterial activity against Staphylococcus epidermidis ATCC 35547 assessed as effect on planktonic growth at 2.73 ug/ml after 20 hrs relative to control; type: functional
Pseudomonas aeruginosa [40] = assay: Antibacterial activity against Pseudomonas aeruginosa ATCC 27853 assessed as effect on planktonic growth at 10.9 ug/ml after 20 hrs relative to control; type: functional
Streptococcus mutans [41] = assay: Antibacterial activity against Streptococcus mutans ATCC 25175 assessed as inhibition of biofilm formation at 44 ug/ml after 20 hrs by crystal-violet staining method relative to control; type: functional; details: ATCC 25175, 20 h
Streptococcus mutans [42] = assay: Antibacterial activity against Streptococcus mutans ATCC 25175 assessed as effect on planktonic growth at 1.37 ug/ml after 20 hrs relative to control; type: functional
Staphylococcus aureus [43] = assay: Antibacterial activity against Staphylococcus aureus ATCC 25923 assessed as effect on planktonic growth at 0.68 ug/ml after 20 hrs relative to control; type: functional

COc1ccc(C)cc1C1=C(Br)C(=O)N(CC(C)C)/C1=C/c1cccc(Cl)c1
Activity (Streptococcus mutans [1]): -2.3%
Activity (Staphylococcus aureus [2]): 1.8%
Activity (Streptococcus mutans [3]): -32.5%
Activity [4]: 6.3%
Activity [5]: 16.2%
Activity (Streptococcus mutans [6]): -22.7%
Activity (Staphylococcus aureus [7]): 4.1%
Activity (Streptococcus mutans [8]): -6.8%
inhibition (Pseudomonas aeruginosa [9]): Dose-dependent effect
IC50 (Pseudomonas aeruginosa [9]): 2.4 mg/L (≈ 5.21 µM)
Activity [10]: 16.6%
Activity (Streptococcus mutans [11]): -12.4%
Activity (Staphylococcus aureus [12]): 0%
Activity (Staphylococcus aureus [13]): 12.5%
inhibition [14]: Dose-dependent effect
IC50 [14]: 81.4 mg/L (≈ 177 µM)
Activity (Staphylococcus aureus [15]): -3.2%
Activity (Pseudomonas aeruginosa [16]): 0.3%
Activity (Staphylococcus aureus [17]): 4.6%
Activity (Staphylococcus aureus [18]): 9.2%
Activity (Pseudomonas aeruginosa [19]): 7.8%
Activity [20]: 14.3%
Activity [21]: 13.9%
Activity [22]: 39.2%
Activity (Streptococcus mutans [23]): -6.4%
Activity (Streptococcus mutans [24]): -1.7%
Activity [25]: 33.5%
Activity (Streptococcus mutans [26]): -2.3%
Activity (Pseudomonas aeruginosa [27]): 1.5%
Activity (Pseudomonas aeruginosa [28]): -1.3%
Activity (Staphylococcus aureus [29]): 0.6%
Activity (Pseudomonas aeruginosa [30]): -0.9%
Activity (Pseudomonas aeruginosa [31]): 29.8%
Activity (Staphylococcus aureus [32]): 2.9%
Activity (Pseudomonas aeruginosa [33]): 10.5%
Activity (Pseudomonas aeruginosa [34]): -2.3%
Activity [35]: 8.4%
Activity [36]: 4.2%
Activity (Pseudomonas aeruginosa [37]): -2.2%
Activity (Streptococcus mutans [38]): -28.3%
Activity [39]: 18.1%
Activity (Pseudomonas aeruginosa [40]): 1.8%
inhibition at 44 µg/mL (Streptococcus mutans [41]): 31.7%
Activity (Streptococcus mutans [42]): -4.9%
Activity (Staphylococcus aureus [43]): 5.8%

COc1ccc(C)cc1C1=C(Br)C(=O)N(CC(C)C)/C1=C\c1cccc(Cl)c1
Activity (Streptococcus mutans [1]): -4.1%
Activity (Staphylococcus aureus [2]): 6.6%
Activity (Streptococcus mutans [3]): -46.7%
Activity [4]: -4.2%
Activity [5]: 2.4%
Activity (Streptococcus mutans [6]): -33.6%
Activity (Staphylococcus aureus [7]): 10.8%
Activity (Streptococcus mutans [8]): -18.8%
inhibition (Pseudomonas aeruginosa [9]): Dose-dependent effect
IC50 (Pseudomonas aeruginosa [9]): 0.6 mg/L (≈ 1.3 µM)
Activity [10]: -38.6%
Activity (Streptococcus mutans [11]): -32.3%
Activity (Staphylococcus aureus [12]): 13.2%
Activity (Staphylococcus aureus [13]): 12%
inhibition [14]: Dose-dependent effect
IC50 [14]: 67.4 mg/L (≈ 146 µM)
Activity (Staphylococcus aureus [15]): 4.8%
Activity (Pseudomonas aeruginosa [16]): 3%
Activity (Staphylococcus aureus [17]): 18.4%
Activity (Staphylococcus aureus [18]): 12.6%
Activity (Pseudomonas aeruginosa [19]): 21.3%
Activity [20]: -19.8%
Activity [21]: 5.6%
Activity [22]: -12.6%
Activity (Streptococcus mutans [23]): -26.3%
Activity (Streptococcus mutans [24]): -4.4%
Activity [25]: -38.8%
Activity (Streptococcus mutans [26]): -6%
Activity (Pseudomonas aeruginosa [27]): 8.8%
Activity (Pseudomonas aeruginosa [28]): 0.8%
Activity (Staphylococcus aureus [29]): 4%
Activity (Pseudomonas aeruginosa [30]): 0%
Activity (Pseudomonas aeruginosa [31]): 35.3%
Activity (Staphylococcus aureus [32]): 11.8%
Activity (Pseudomonas aeruginosa [33]): 25.6%
Activity (Pseudomonas aeruginosa [34]): 0.9%
Activity [35]: 1.1%
Activity [36]: 6.4%
Activity (Pseudomonas aeruginosa [37]): 0.8%
Activity (Streptococcus mutans [38]): -42.5%
Activity [39]: 11.4%
Activity (Pseudomonas aeruginosa [40]): 13.5%
inhibition at 44 µg/mL (Streptococcus mutans [41]): 34%
Activity (Streptococcus mutans [42]): -14.9%
Activity (Staphylococcus aureus [43]): 9.2%

COc1ccc(C)cc1C1=C(Br)C(=O)O/C1=C\c1ccccc1Cl
Activity (Streptococcus mutans [1]): 6.4%
Activity (Staphylococcus aureus [2]): 25.3%
Activity (Streptococcus mutans [3]): 18.9%
Activity [4]: 0.9%
Activity [5]: -0.1%
Activity (Streptococcus mutans [6]): -3.3%
Activity (Staphylococcus aureus [7]): 6%
Activity (Streptococcus mutans [8]): -4.1%
inhibition (Pseudomonas aeruginosa [9]): Dose-dependent effect
Activity [10]: 15.8%
Activity (Streptococcus mutans [11]): -13.6%
Activity (Staphylococcus aureus [12]): 10.9%
Activity (Staphylococcus aureus [13]): 16.9%
inhibition [14]: Dose-dependent effect
Activity (Staphylococcus aureus [15]): 37%
Activity (Pseudomonas aeruginosa [16]): -4.1%
Activity (Staphylococcus aureus [17]): 8.3%
Activity (Staphylococcus aureus [18]): 16.9%
Activity (Pseudomonas aeruginosa [19]): -6.8%
Activity [20]: 13.5%
Activity [21]: -1.6%
Activity [22]: 70.5%
Activity (Streptococcus mutans [23]): 0.8%
Activity (Streptococcus mutans [24]): 1.5%
Activity [25]: 36.5%
Activity (Streptococcus mutans [26]): 5.6%
Activity (Pseudomonas aeruginosa [27]): -5.3%
Activity (Pseudomonas aeruginosa [28]): -7.8%
Activity (Staphylococcus aureus [29]): 7.3%
Activity (Pseudomonas aeruginosa [30]): -7.5%
Activity (Pseudomonas aeruginosa [31]): 11.1%
Activity (Staphylococcus aureus [32]): 8.3%
Activity (Pseudomonas aeruginosa [33]): -2%
Activity (Pseudomonas aeruginosa [34]): -3.8%
Activity [35]: 3.7%
Activity [36]: 8.5%
Activity (Pseudomonas aeruginosa [37]): -8.6%
Activity (Streptococcus mutans [38]): 7.4%
Activity [39]: -0.7%
Activity (Pseudomonas aeruginosa [40]): -10.2%
Activity (Streptococcus mutans [42]): 1.5%
Activity (Staphylococcus aureus [43]): 10.9%
